One data set is described as follows: in vitro. To be noted: human, hela cells, % viability.
For orientation: viability means a read-out of living cells in per cent, often relative to untreated cells. In the case of `CC(C)C(=O)N1C[C@H]2NC(=O)c3ccccc3C(=O)[C@@]2(C)C1` [CBK281658], the viability at 28.5 h, 10 µM worked out at 103%.

Consider `CCOC(=O)c1cnn(C2CCCN(Cc3cccn3C)C2)c1` (stereo not shown) [CBK305114], for which the viability at 28.5 h, 10 µM came to 84.3%.

Regarding `Cc1noc(C)c1C(=O)NC1Cc2ccccc2C1` [CBK200350], the viability at 28.5 h, 10 µM was 91.4%.

In the case of `CN(C)CC1CCCN(C(=O)[C@@H]2C[C@@H]3C=C[C@H]2C3)C1` (stereo partly shown) [CBK282063], the viability at 28.5 h, 10 µM came to 98%.

As for `Nc1nc2ccccc2n1/N=C/c1ccc([N+](=O)[O-])cc1` [CBK262239], the viability at 28.5 h, 10 µM stood at 88%.

Take `Nc1nnc(SCC(=O)c2ccc3ccccc3c2)s1` [CBK266120]: the viability at 28.5 h, 10 µM stood at 97.7%.

As for `Nc1ccc2cc(-c3cccc(OCc4ccccc4)c3)cnc2n1` [CBK081172], the viability at 28.5 h, 10 µM was determined as 108%.

In the case of `CCC(C)(C)NC(=NC#N)Nc1cccnc1` [CBK016580], the viability at 28.5 h, 10 µM was 85.1%.

In the case of `CC(C)NC(=O)NC[C@H]1C[C@@H]2CCN1C[C@@H]2c1cc(-c2ccc(F)cc2)nn1C` [CBK289111], the viability at 28.5 h, 10 µM was 88.5%.

`CCCCc1ccc(S(=O)(=O)n2ccc3c(N4CCNCC4)nccc32)cc1` [CBK045805C]: the viability at 28.5 h, 10 µM was 100%.

Turning to `Nc1[nH]ncc1-c1nnc(Nc2ccc3c(c2)OCO3)o1` [CBK288537], the viability at 28.5 h, 10 µM came out at 85.1%.

Regarding `O=C(O)c1ccc(COc2ccc(/C=C3\SC(=S)N(Cc4cccnc4)C3=O)cc2Cl)cc1` [CBK264672], the viability at 28.5 h, 10 µM came out at 91.9%.

Regarding `N#Cc1ccc(C2NC(=O)c3ccccc3O2)cc1` (stereo not shown) [CBK288180], the viability at 28.5 h, 10 µM was 89.3%.

For the molecule `CN(C)CCNC(=O)c1cccc(Oc2ccccc2)c1` [CBK270310], the viability at 28.5 h, 10 µM is 83.1%.

Regarding `COc1cc(Nc2cc(-c3ccc(NC(C)=O)cc3)ncn2)cc(OC)c1OC` [CBK090710], the viability at 28.5 h, 10 µM turned out to be 103%.

`CCN(CC)C(=O)CCc1nc2sc3c(c2c(=O)[nH]1)CCCC3` [CBK305069]: the viability at 28.5 h, 10 µM worked out at 87.6%.

As to `COc1ccc(CN(Cc2ccccc2OC)[C@@H]2COC[C@H]2c2ccc(F)cc2)cc1` [CBK286484], the viability at 28.5 h, 10 µM came to 105%.

On to `Cc1ccc2c(C)c(C(=O)Nc3sc4c(c3C(=O)NCc3ccco3)CCC4)oc2c1` [CBK267662], for which the viability at 28.5 h, 10 µM came out at 99.2%.

Regarding `CC(C)C12CN3CC(C(C)C)(CN(C1)C3c1ccc3c(c1)OCO3)C2=O` (stereo not shown) [CBK265981], the viability at 28.5 h, 10 µM was 100%.

Regarding `COC(=O)c1ccccc1NC(=O)CSc1nnc(-c2ccccc2)[nH]1` [CBK266338], the viability at 28.5 h, 10 µM is 96.7%.

Turning to `Cc1ccccc1C(=O)Nc1ccc(S(=O)(=O)Nc2nccs2)cc1` [CBK086797], the viability at 28.5 h, 10 µM was determined as 89.4%.

On to `CCCN1CCc2c(sc3nc(SCC(=O)c4ccccc4)n(-c4ccccc4)c(=O)c23)C1` [CBK262587], for which the viability at 28.5 h, 10 µM came to 109%.

With `CN(C)CCN(Cc1cc2cc3c(cc2[nH]c1=O)OCO3)C(=S)Nc1ccc(F)cc1` [CBK135186], the viability at 28.5 h, 10 µM worked out at 91.2%.

As for `O=C(NCc1ccc([N+](=O)[O-])cc1)c1cccnc1NCc1ccc2c(c1)OCO2` [CBK153436], the viability at 28.5 h, 10 µM was 98.6%.

As for `CCn1cc(C(=O)N[C@H](C(=O)O)C(C)C)c(=O)c2cc3c(cc21)OCO3` [CBK286786], the viability at 28.5 h, 10 µM came to 110%.

Take `CC1CCN(C(=O)Cn2c(=O)n(C(C)C)c3ncccc32)CC1` [CBK283698]: the viability at 28.5 h, 10 µM stood at 89.5%.

`COc1cccc(C(=O)N2CCN(C)C(=O)C2Cc2ccccc2-c2ccccc2)c1OC` (stereo not shown) [CBK285828]: the viability at 28.5 h, 10 µM was found to be 109%.

For the molecule `Cc1nn(C)cc1C(=O)N1CCCC1c1nc2ccccc2[nH]1` (stereo not shown) [CBK282371], the viability at 28.5 h, 10 µM worked out at 84.7%.

With `COc1ccc(CC(=O)N2CCCC(c3nc(C)c4c(n3)N(CC3CC3)CCC4)C2)cc1` (stereo not shown) [CBK286228], the viability at 28.5 h, 10 µM came out at 100%.

Regarding `CO[C@]1(c2cccc(C)c2)CC[C@@H](N2CCCCC2)CC1` [CBK015909G], the viability at 28.5 h, 10 µM is 83%.

For `CC(=O)Nc1cccc(NCc2csc(C3CCCC3)n2)c1` [CBK304874], the viability at 28.5 h, 10 µM came out at 110%.

With `OC1(Cn2ccc3ncccc32)CCN(Cc2ccccc2F)CC1` [CBK284752], the viability at 28.5 h, 10 µM turned out to be 93.3%.

Turning to `Cn1cnc2c1c(=O)n(CCCN1C(=O)C3(CC(=O)N(Cc4ccccc4)C3=O)c3cc(F)ccc31)c(=O)n2C` (stereo not shown) [CBK075717], the viability at 28.5 h, 10 µM was determined as 76%.

`O=C1CCC(=O)N1CCOc1nccnc1OC1CCN(CCCn2c(=O)[nH]c3ccccc32)CC1` [CBK084350]: the viability at 28.5 h, 10 µM is 90.2%.

As to `Cc1ccc(Cn2cnc3c(nnn3-c3ccc(C)cc3)c2=O)cc1` [CBK287502], the viability at 28.5 h, 10 µM stood at 102%.

For `CC1CCc2c(sc(NC(=O)c3ccccc3)c2CN2CCCC2)C1` (stereo not shown) [CBK265908], the viability at 28.5 h, 10 µM stood at 98.7%.

Turning to `Cc1noc(C)c1NC(=O)c1c(C)noc1C` [CBK200305], the viability at 28.5 h, 10 µM was 96.4%.

On to `FC(F)(F)c1ccc(SCc2ccccc2)nc1` [CBK103715], for which the viability at 28.5 h, 10 µM is 89.7%.

With `Cc1cc(Cl)cc(C)c1OCCN1CCNCC1` [CBK266057G], the viability at 28.5 h, 10 µM is 84.4%.

`CC1CCCC(C)N1C(=O)C1CCCCC1C(=O)O` (stereo not shown) [CBK026624]: the viability at 28.5 h, 10 µM was determined as 93.2%.

Take `Cc1ccc(NC(=O)N(CCC#N)C2CCCCC2)cc1` [CBK156381]: the viability at 28.5 h, 10 µM was determined as 106%.

Regarding `CCn1c(SCC(=O)Nc2ccc(C(=O)O)cc2)nnc1-c1ccccc1C` [CBK265927], the viability at 28.5 h, 10 µM came to 107%.

As for `O=C(Nc1ccccc1C(=O)N1CCOCC1)C1CCN(C(=O)c2ccco2)CC1` [CBK270272], the viability at 28.5 h, 10 µM is 105%.

In the case of `O=C(O)c1ccc(NC(=O)c2cccc(NC(=O)c3cccc4ccccc34)c2)cc1` [CBK299823], the viability at 28.5 h, 10 µM was found to be 101%.

Turning to `Cc1ccccc1-c1ccccc1CC1(C(N)=O)CCN(C(=O)CCc2ccccc2)CC1` [CBK285725], the viability at 28.5 h, 10 µM is 102%.

On to `COC(=O)c1ccccc1N1C(=O)c2cccc([N+](=O)[O-])c2C1=O` [CBK115382], for which the viability at 28.5 h, 10 µM amounted to 95.7%.

Consider `CCN(CCO)C(=O)C(C)Oc1cc(C)ccc1Cl` (stereo not shown) [CBK306019], for which the viability at 28.5 h, 10 µM came out at 86.6%.

As for `Cc1noc(C)c1S(=O)(=O)Nc1ccc(C(=O)Nc2ccc(F)cc2)cc1` [CBK034410], the viability at 28.5 h, 10 µM worked out at 95.1%.

For `Cc1cc(C)nc(N/C(=N\C(=O)Nc2ccccc2)NCc2cccnc2)n1` [CBK132681], the viability at 28.5 h, 10 µM was found to be 92.2%.

On to `COc1ccccc1-c1cn2ccnc2c(Nc2cccc(Cl)c2)n1` [CBK066399], for which the viability at 28.5 h, 10 µM was 89.4%.

Consider `CNC(=O)C1(Cc2ccccc2-c2cccs2)CCN(C(=O)Cc2cccc(C)c2)CC1` [CBK285686], for which the viability at 28.5 h, 10 µM turned out to be 105%.

In the case of `Cc1cnc2c(c1)cc(C(F)(F)F)n2CC(=O)NC1CC1` [CBK282887], the viability at 28.5 h, 10 µM stood at 105%.

As for `COc1cccc(/C=C\c2[nH]c(=O)[nH]c(=O)c2[N+](=O)[O-])c1OCC(=O)O` [CBK266822], the viability at 28.5 h, 10 µM came to 104%.

With `CCOC(=O)c1cnc2ccccc2c1NCCN1CCOCC1` [CBK304328], the viability at 28.5 h, 10 µM was found to be 101%.

Take `c1ccc2cc(-c3cn4ccnc4c(N4CCN(c5ccncc5)CC4)n3)ccc2c1` [CBK066369]: the viability at 28.5 h, 10 µM was found to be 89.2%.

Regarding `O=C(CSc1ncn[nH]1)N/N=C/c1cn(-c2ccccc2)nc1-c1ccccc1` [CBK262850], the viability at 28.5 h, 10 µM was 101%.

As for `O=C(O)c1ccc(COc2ccc(/C=C3\SC(=S)N(Cc4cccnc4)C3=O)cc2)cc1` [CBK264637], the viability at 28.5 h, 10 µM worked out at 101%.

Consider `Cc1ccccc1C(=O)N1CCN(S(=O)(=O)c2sc(C(=O)O)c(C)c2C(=O)O)CC1` [CBK297146], for which the viability at 28.5 h, 10 µM came to 102%.

On to `Cc1cc(C)n(CC(C)CNC(=O)CCCN(C)C)n1` (stereo not shown) [CBK304831], for which the viability at 28.5 h, 10 µM worked out at 93%.

Regarding `Clc1ccc(CN2CCCN(c3nccc(OCC4COc5ccccc5O4)n3)CC2)cc1Cl` (stereo not shown) [CBK083967], the viability at 28.5 h, 10 µM was 97.3%.

In the case of `Cc1cc(C2CCCCCN2C(=O)c2nn(C)cc2Cl)on1` (stereo not shown) [CBK284843], the viability at 28.5 h, 10 µM was determined as 105%.

In the case of `CC(C)(C)NCC(O)COc1c(F)cc(Br)cc1F` (stereo not shown) [CBK020879C], the viability at 28.5 h, 10 µM was 107%.

With `COc1ccc(C(=O)Nc2cc(C)c3c(=O)oc4ccccc4c3n2)c(OC)c1` [CBK291231], the viability at 28.5 h, 10 µM was 94.5%.

For the molecule `CCOC(=O)c1cc2cc(NC(=O)N(CCO)C3CC3)ccc2s1` [CBK306007], the viability at 28.5 h, 10 µM was found to be 87.6%.

In the case of `CN(CC1(C)COC1)C(=O)C1CC(=O)N(C(C)(C)C)C1` (stereo not shown) [CBK281724], the viability at 28.5 h, 10 µM came to 112%.

For the molecule `O=C(O)CC1C(=O)NCCN1Cc1c(F)cccc1Cl` (stereo not shown) [CBK287157], the viability at 28.5 h, 10 µM is 88.6%.

Turning to `O=C(CCCCCN1C(=O)c2cccc3cccc(c23)C1=O)NO` [CBK261295], the viability at 28.5 h, 10 µM stood at 55.6%.

Regarding `CC(=O)N1CCC(C(=O)NC(=O)NC2CCCCC2)CC1` [CBK034847], the viability at 28.5 h, 10 µM turned out to be 99.4%.

For the molecule `CC(=O)Nc1ccc(C(=O)N/C(=C/c2ccccc2)C(=O)O)cc1` [CBK265353], the viability at 28.5 h, 10 µM turned out to be 87.6%.

As to `Cc1nccn1CCCn1cncc1-c1cnn(C2CCCCC2)c1` [CBK281816], the viability at 28.5 h, 10 µM was 105%.

For the molecule `CC(C)(C)C(=O)CSc1nnc(Cn2cnc(Cl)c2Cl)o1` [CBK011055], the viability at 28.5 h, 10 µM was determined as 81.2%.

On to `COC(=O)c1cccc2c1CCCN2Cc1nnc(C2CC2)o1` [CBK304868], for which the viability at 28.5 h, 10 µM came to 90.2%.

Consider `COc1ccc(S(=O)(=O)Nc2nnc(C)s2)cc1` [CBK045543], for which the viability at 28.5 h, 10 µM was found to be 114%.

Turning to `O=C(Cc1ccccc1Oc1ccccc1)Nc1cnc(-c2ccc(F)cc2)c(-c2ccco2)n1` [CBK037194], the viability at 28.5 h, 10 µM worked out at 92.6%.

`COc1cc(NC(=O)c2ccc3c(c2)C(=O)N(Cc2cccnc2)C3=O)c(C(=O)O)cc1OC` [CBK266802]: the viability at 28.5 h, 10 µM was 88.1%.

As to `Cc1ccc(S(=O)(=O)c2cncc(N3CCNCC3)n2)cc1` [CBK051166C], the viability at 28.5 h, 10 µM amounted to 101%.

`COc1ccc(-c2cccc(Nc3cccnc3)n2)cc1OC` [CBK037644]: the viability at 28.5 h, 10 µM was found to be 94.6%.

In the case of `O=C(c1csnn1)N1CCc2ccccc21` [CBK200408], the viability at 28.5 h, 10 µM was 86%.

Still in this data set, the particulars now being: human, hela cells, % viability, bulk resorufin, single well.
For the molecule `Oc1ccc(CN2CCN(c3cccc(Cl)c3)CC2)cc1` [CBK261528], the viability at 28.5 h, 10 µM stood at 109%.

For the origin of these results see paper PMC12040169 (PLOS Biology, 2025).
